Converted amounts (≈) assume the structure as drawn. Read-outs that look alike come from different tables or passages of the source.
Tests used:
[1] = Hygroscopicity by DVS at 25° C.; format: physicochemical; conditions: for water uptake: DVS 25° C.
Experimental: Hygroscopicity of Form A and Form N was investigated by DVS at 25° C. […] Form A converted to Form K after the DVS test. Form K is a metastable hydrate. It reverted back to Form A after exposure to ambient condition.
Hygroscopicity of the free base Pattern A* and the urea cocrystal Form P were evaluated by DVS at 25° C.

[2] = pH 6.5
physchem = conditions: 37 °C, thermodynamic from solid
[3] = Variable humidity XRPD (VH-XRPD) experiments; format: physicochemical
Experimental: Based on DVS results, variable humidity XRPD was conducted for Pattern A at different humidity conditions, including 40%, 70%, 90%, 70%, 40%, 20%, 0%, 40% RH conditions.
Based on DVS results, variable humidity XRPD was conducted for Pattern N, at different humidity conditions, including 40%, 70%, 90%, 70%, 40%, 20%, 0%, 40% RH conditions.

[4] = Variable temperature XRPD (VT-XRPD) experiments; format: physicochemical
Experimental: To investigate form conversion behavior, variable temperature XRPD experiments were conducted for hydrate Pattern A, hydrate Pattern C, hydrate Pattern F and hetero-solvate Pattern L.
Based on DSC and TGA results, variable temperature XRPD was conducted for Pattern A, at different temperatures, including 25° C., 110° C. and 25° C.
Based on DSC and TGA results, variable temperature XRPD was conducted for Pattern B, at different temperatures, including 25° C., 80° C., 130° C. and 25° C. The sample after heating-cooling was placed at 25° C./75% RH condition for 1 day and investigated by XRPD.
Based on DSC and TGA results, variable temperature XRPD was conducted for Pattern C, at different temperatures, including 25° C., 110° C. and 25° C.
Based on DSC and TGA results, variable temperature XRPD was conducted for Pattern F at different temperatures, including 25° C., 110° C. and 25° C. The sample after heating-cooling was placed at 25° C./75% RH condition for 1 day and investigated by XRPD.
Based on DSC and TGA results, variable temperature XRPD was conducted for Pattern L, at different temperatures, including 25° C., 100° C., 140° C., 180° C. and 25° C. The sample after heating-cooling was placed at 25° C./92% RH condition for 24 h and investigated by XRPD.

[5] = Solubility study in aqueous media at 37° C.
[6] = Bulk stability study (1 week stress conditions; drying); conditions: one week
Photostability study = conditions: 1.2 million lux-hrs at 25° C., open container
[7] = pH 4.5, 50 mM acetate buffer, 24 h

## COc1cc(-c2cn(C)c(=O)c(C)c2C)cc(OC)c1CN1CC[C@H](N2CCN(c3ccc(N[C@H]4CCC(=O)NC4=O)cc3F)CC2)C(F)(F)C1 [Form P]
[1]; 95% RH
  water uptake: 3.1%
[1]; below 90% RH
  water uptake: 1.6%
[2]
  Solubility: low solubility (close to LOQ)
physchem; pH 1, simulated gastric fluid
  Solubility: > 2000 µg/mL
physchem; pH 1.8, simulated gastric fluid
  Solubility: > 2000 µg/mL
physchem; pH 4.5, aqueous buffer
  Solubility: 100 to 300 µg/mL (≈ 141 to 422 µM)
physchem; pH 5, fessif
  Solubility: 100 to 300 µg/mL (≈ 141 to 422 µM)

## COc1cc(-c2cn(C)c(=O)c(C)c2C)cc(OC)c1CN1CC[C@H](N2CCN(c3ccc(N[C@H]4CCC(=O)NC4=O)cc3F)CC2)C(F)(F)C1 [Pattern A*]
[1]; DVS
  water uptake from 40% RH to 95% RH: 6.0% water uptake from
[1]; 95% RH
  water uptake: about 6.0%
[1]; DVS, 0% RH
  1st desorp. (%): 0.0%
  2nd sorp. (%): 0.0%
[1]; DVS, 10% RH
  1st desorp. (%): 1.1%
  2nd sorp. (%): 1.0%
[1]; DVS, 20% RH
  1st desorp. (%): 1.8%
  2nd sorp. (%): 1.5%
[1]; DVS, 30% RH
  1st desorp. (%): 4.5%
  2nd sorp. (%): 2.1%
[1]; DVS, 40% RH
  1st desorp. (%): 6.3%
  1st sorp. (%): 4.6%
  2nd desorp. (%): 6.6%
  2nd sorp. (%): 3.6%
[1]; DVS, 50% RH
  1st desorp. (%): 8.5%
  1st sorp. (%): 5.2%
  2nd desorp. (%): 8.5%
  2nd sorp. (%): 5.8%
[1]; DVS, 60% RH
  1st desorp. (%): 9.4%
  1st sorp. (%): 6.9%
  2nd desorp. (%): 9.4%
  2nd sorp. (%): 7.7%
[1]; DVS, 70% RH
  1st desorp. (%): 9.7%
  1st sorp. (%): 9.1%
  2nd desorp. (%): 9.7%
  2nd sorp. (%): 9.3%
[1]; DVS, 80% RH
  1st desorp. (%): 1.0%
  1st sorp. (%): 9.8%
  2nd desorp. (%): 10.0%
  2nd sorp. (%): 9.8%
[1]; DVS, 90% RH
  1st desorp. (%): 10.3%
  1st sorp. (%): 10.3%
  2nd desorp. (%): 10.3%
  2nd sorp. (%): 10.2%
[1]; DVS, 95% RH
  1st desorp. (%): 10.6%
  1st sorp. (%): 10.6%
  2nd desorp. (%): 10.5%
  2nd sorp. (%): 10.5%
[3]; 0% RH
  XRPD: Pattern J
[3]; 0% RH hold 6 h
  XRPD: Pattern J
[3]; 0% RH hold 2 days
  XRPD: Pattern J
[3]; 20% RH
  XRPD: Pattern A
[3]; 40% RH (after 90% RH, falling)
  XRPD: Pattern A
[3]; 40% RH (first step)
  XRPD: Pattern A
[3]; 40% RH (last step, after 0% RH)
  XRPD: Pattern A
[3]; 70% RH (after 90% RH)
  XRPD: Metastable Pattern K
[3]; 70% RH (humidity rising)
  XRPD: Metastable Pattern K
[3]; 90% RH
  XRPD: Metastable Pattern K
[4]; 25° C. (start)
  XRPD: Pattern A
[4]; 25° C./50% RH hold 2 h
  XRPD: Pattern A
[4]; Cool to 25° C.
  XRPD: Metastable Pattern J
[4]; Heat to 110° C.
  XRPD: Metastable Pattern J
[5]; FaSSIF-v1 (pH 6.5)
  Solubility: low solubility (close to LOQ)
[5]; FaSSIF-v1, pH 6.5, 2 h
  pH: pH: 6.5
[5]; FaSSIF-v1, pH 6.5, 2 h, target 10 mg/5 mL, LOQ: 50 μg/mL
  Solubility: <LOQ
[5]; FaSSIF-v1, pH 6.5, 24 h
  XRPD of residual solids: No form change
  pH: pH: 6.5
[5]; FaSSIF-v1, pH 6.5, 24 h, target 10 mg/5 mL, LOQ: 50 μg/mL
  Solubility: 80 µg/mL (≈ 113 µM)
[5]; FeSSIF-v1, pH 5.0, 2 h
  pH: pH: 5.0
[5]; FeSSIF-v1, pH 5.0, 2 h, target 10 mg/5 mL, LOQ: 50 μg/mL
  Solubility: 170 µg/mL (≈ 239 µM)
[5]; FeSSIF-v1, pH 5.0, 24 h
  pH: pH: 5.0
[5]; FeSSIF-v1, pH 5.0, 24 h, target 10 mg/5 mL, LOQ: 50 μg/mL
  Solubility: 210 µg/mL (≈ 295 µM)
[5]; SGF, pH 1.8, 2 h
  pH: pH: 2.4
[5]; SGF, pH 1.8, 2 h, target 10 mg/5 mL, LOQ: 50 μg/mL
  Solubility: >2000 µg/mL
[5]; SGF, pH 1.8, 24 h
  pH: pH: 2.4
[5]; SGF, pH 1.8, 24 h, target 10 mg/5 mL, LOQ: 50 μg/mL
  Solubility: >2000 µg/mL
[5]; pH 1.0 (0.1N HCl), 2 h
  pH: pH: 1.0
[5]; pH 1.0 (0.1N HCl), 2 h, target 10 mg/5 mL, LOQ: 50 μg/mL
  Solubility: >2000 µg/mL
[5]; pH 1.0 (0.1N HCl), 24 h
  pH: pH: 1.0
[5]; pH 1.0 (0.1N HCl), 24 h, target 10 mg/5 mL, LOQ: 50 μg/mL
  Solubility: >2000 µg/mL
[5]; pH 4.5, 50 mM acetate buffer, 2 h
  pH: pH: 4.5
[5]; pH 4.5, 50 mM acetate buffer, 2 h, target 10 mg/5 mL, LOQ: 50 μg/mL
  Solubility: 260 µg/mL (≈ 366 µM)
[5]; [7]
  XRPD of residual solids: No form change
  pH: pH: 4.5
[5]; pH 4.5, 50 mM acetate buffer, 24 h, target 10 mg/5 mL, LOQ: 50 μg/mL
  Solubility: 120 µg/mL (≈ 169 µM)
[6]; 25° C./92% RH open, 40° C./75% RH open, 60° C. tight container
  chemical stability: good chemical stability
[6]; 25° C./92% RH, open container
  physical stability: agglomeration
[6]; 40° C./75% RH, open container
  physical stability: physically stable
[6]; 60° C., tight container
  physical stability: crystallinity decrease
Photostability study
  degradation after exposure to light: ~1%

Source: patent US20240245677A1, “SELECTED COMPOUNDS FOR TARGETED DEGRADATION OF BRD9” (C4 THERAPEUTICS, INC., priority 2021, published 2024)
